Measurements from patent US20200147028A1, “TREATMENT OF RESPIRATORY INFECTION WITH A TLR2 AGONIST” (Ena Therapeutics Pty Ltd, priority 2017, published 2020).
“Also recorded” adds a separate entry of the source.

What was measured:
TNFα = assay: Mouse RV1B infection model: TNFα in BAL by ELISA
Procedure: (§2) Remaining lung lobes we snap frozen in liquid nitrogen, homogenised in 600 μl PBS containing protease inhibitors (Roche) by TissueLyser II run twice at 30 Hz for 4 minutes. Cell debris was pelleted by centrifugation, samples were diluted 1:2 with PBS and stored at −80° C. BAL fluid was then analysed for production of KC/IL-8 (CXCL1) and TNF-α by Duoset ELISA (R&D Systems) as per manufacturer's instructions.

BAL inflammatory cells [1] = assay: Mouse RV1B infection with fluticasone propionate: BAL cell analysis
Procedure: Following sacrifice, mice were tracheally cannulated and 1 ml of Hanks buffered saline solution (Hyclone™, GE Life Sciences) flushed through the airways, 3-5 times. BAL cells were pelleted by centrifugation and supernatant was collected and stored at −80° C. for ELISAs. The pelleted cells were red blood cells lysed and the remaining cells were counted on a heamocytometer by trypan blue exclusion. Cell suspensions were then cytocentrifuged onto slides and fixed and stained with Diff Quick (POCD) solutions as per manufacturers recommendations. A minimum of 200 total cells were counted per slide and numbers of neutrophils, lymphocytes, and macrophages were determined.

TNF-α = assay: Mouse RV1B infection with fluticasone propionate: TNF-α in BAL by ELISA; assay type: in vivo, BALB/c mice
CXCL1 [2] = assay: Mouse RV1B infection with fluticasone propionate: CXCL1 in BAL by ELISA; assay type: in vivo, BALB/c mice; conditions: 2 pmol INNA-006, with or without FP; day 2 p.i.
[3] = tested on: other TLR pattern recognition receptors; assay: TLR panel NF-κB SEAP reporter in HEK293 cells: other TLRs; assay type: cell-based; conditions: human and mouse TLR panels
Procedure: (§1) INNA-006 was assessed for its ability to activate a range of other TLR pattern recognition receptors. These assessments were conducted using both human and mouse TLR panels. These assays detect a secreted embryonic alkaline phosphatase (SEAP) reporter under the control of a promoter which is inducible by NF-κB activation in HEK293 cells. The secreted embryonic alkaline phosphatase (SEAP) reporter is under the control of a promoter inducible by the transcription factor NF-κB. This reporter gene allows the monitoring of signaling through the TLR, based on the activation of NF-κB. In a 96-well plate (200 μL total volume) containing the appropriate cells (50,000-75,000 cells/well), 20 μL of the test article or the positive control ligand is added to the wells. The media added to the wells is designed for the detection of NF-κB induced SEAP expression. After a 16-24 hr incubation the optical density (OD) is read at 650 nm on a Molecular Devices SpectraMax 340PC absorbance detector.

[4] = tested on: Rhinovirus serotype 1B (RV1B); assay: Mouse RV1B infection model: lung viral RNA by qPCR; conditions: for lung viral load: day +1
RV1B = RV1B infection of ALI-differentiated BCi-NS1 cells: viral RNA by qPCR; conditions: 20 nM and 2 nM pre-treatment 24 h; 96 h post infection; vs control
CXCL1 [5] = assay: Mouse RV1B infection model: CXCL1 in BAL by ELISA
Procedure: as §2

[6] = set-up: species or system BALB/c mice; conditions: mouse, in vivo
From the text: Each group contained 5 mice.

BAL inflammatory cells [7] = assay: Mouse RV1B infection model: BAL cell analysis
Procedure: Following sacrifice, mice were tracheally cannulated and 1 ml of Hanks buffered saline solution (Hyclone™, GE Life Sciences) flushed through the airways, 3-5 times. BAL cells were pelleted by centrifugation and supernatant was collected and stored at −80° C. for ELISAs. The pelleted cells were red blood cells lysed and the remaining cells were counted on a heamocytometer by trypan blue exclusion. Cell suspensions were then cytocentrifuged onto slides and fixed and stained with Diff Quick (POCD) solutions as per manufacturer's recommendations. A minimum of 200 total cells were counted per slide and numbers of neutrophils, lymphocytes, and macrophages were determined.

[8] = tested on: Rhinovirus serotype 1B (RV1B); assay: Mouse RV1B infection with fluticasone propionate: lung viral RNA by qPCR
TLR-2 = TLR-2 (Homo sapiens, UniProt O60603); assay: TLR panel NF-κB SEAP reporter in HEK293 cells: TLR-2; assay type: cell-based; set-up: expressed in transfected cells; host or cells: HEK293; conditions: human and mouse TLR panels, FIG. 21
TLR-2, sequence (O60603 21-784): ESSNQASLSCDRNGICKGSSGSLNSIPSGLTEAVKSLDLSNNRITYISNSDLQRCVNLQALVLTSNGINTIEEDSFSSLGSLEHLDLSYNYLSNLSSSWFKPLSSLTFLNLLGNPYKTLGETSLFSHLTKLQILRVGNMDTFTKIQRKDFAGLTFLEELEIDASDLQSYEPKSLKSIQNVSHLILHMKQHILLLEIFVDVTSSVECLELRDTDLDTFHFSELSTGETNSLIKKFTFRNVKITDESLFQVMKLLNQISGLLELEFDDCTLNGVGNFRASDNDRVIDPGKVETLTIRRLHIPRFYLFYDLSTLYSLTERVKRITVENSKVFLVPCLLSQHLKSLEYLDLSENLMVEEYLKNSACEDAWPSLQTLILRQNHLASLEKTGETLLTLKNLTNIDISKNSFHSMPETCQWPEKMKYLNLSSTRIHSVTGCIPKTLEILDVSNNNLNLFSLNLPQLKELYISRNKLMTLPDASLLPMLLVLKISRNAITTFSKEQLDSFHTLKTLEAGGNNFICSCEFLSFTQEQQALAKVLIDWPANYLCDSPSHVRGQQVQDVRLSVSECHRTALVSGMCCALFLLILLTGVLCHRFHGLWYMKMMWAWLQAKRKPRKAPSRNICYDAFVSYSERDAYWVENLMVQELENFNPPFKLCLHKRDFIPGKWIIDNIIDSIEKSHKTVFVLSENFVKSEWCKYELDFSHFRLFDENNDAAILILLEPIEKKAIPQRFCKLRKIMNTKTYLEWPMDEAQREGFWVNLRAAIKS
TLR-2, sequence (Q9Y2C9 32-796 partner): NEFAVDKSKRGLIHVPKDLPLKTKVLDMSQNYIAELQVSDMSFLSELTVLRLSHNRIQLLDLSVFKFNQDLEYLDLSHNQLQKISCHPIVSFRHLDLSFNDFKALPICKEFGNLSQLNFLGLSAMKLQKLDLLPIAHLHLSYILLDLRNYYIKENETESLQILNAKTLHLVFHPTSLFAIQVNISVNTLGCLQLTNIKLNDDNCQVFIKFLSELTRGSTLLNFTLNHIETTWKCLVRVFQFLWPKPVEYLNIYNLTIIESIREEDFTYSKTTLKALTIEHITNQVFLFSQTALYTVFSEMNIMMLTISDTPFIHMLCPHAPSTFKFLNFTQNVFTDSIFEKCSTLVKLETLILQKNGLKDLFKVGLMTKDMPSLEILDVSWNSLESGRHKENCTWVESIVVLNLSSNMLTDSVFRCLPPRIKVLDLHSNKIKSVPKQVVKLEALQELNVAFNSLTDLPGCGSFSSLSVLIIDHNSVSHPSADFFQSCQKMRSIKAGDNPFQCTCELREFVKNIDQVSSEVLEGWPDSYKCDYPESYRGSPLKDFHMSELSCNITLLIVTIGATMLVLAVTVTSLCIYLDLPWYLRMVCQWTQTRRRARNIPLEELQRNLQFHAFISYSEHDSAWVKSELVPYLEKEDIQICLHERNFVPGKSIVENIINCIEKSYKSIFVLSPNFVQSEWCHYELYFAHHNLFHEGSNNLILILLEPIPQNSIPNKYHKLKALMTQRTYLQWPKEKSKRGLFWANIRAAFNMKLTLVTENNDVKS
Procedure: as §1

[9] = Study 1G: lowest doses (2 pmole and 1 pmole) day +1, listed as Peg-S-Pam2Cys

## CCC(=O)OCC(CSCC(N)C(=O)NC(CO)C(=O)NCCOCC(=O)NCC(N)=O)OC(=O)CC (stereo not drawn) [INNA-006, Pam2Cys-Ser-PEG]
TNFα; Study 1E: day −7, listed as Peg-S-Pam2Cys
  TNF-α in BAL: not increased by any of the compounds; also recorded: lack of induction of TNFα
TNFα; Study 1F: 2 pmol, all groups
  TNF-α in BAL: did not induce TNF-α in any of the groups
TNFα; Study 1G: 10-1 pmol day +1
  TNF-α in BAL: dose dependent upon drug treatment
TNFα; [9]
  TNF-α in BAL: not increased by the lowest doses; also recorded: no significant increase in KC or TNFα
BAL inflammatory cells [1]; 2 pmol, all treatment protocols, with or without FP
  RV-induced, steroid resistant neutrophilic inflammation: prevented RV-induced and steroid resistant neutrophilic inflammation; also recorded: completely ameliorated RV-induced and steroid resistant neutrophilic inflammatory response; also recorded: complete suppression of RV-induced steroid resistant neutrophilic inflammation
BAL inflammatory cells [1]; D-7 INNA-006 2 pmol with FP
  BAL macrophages and lymphocytes: increased macrophages and lymphocytes when given in conjunction with FP
BAL inflammatory cells [1]; combined D-7 & D-1 INNA-006 2 pmol
  BAL macrophages and lymphocytes: increased macrophages and lymphocytes in BAL
BAL inflammatory cells [1]; combined D-7 & D-1 INNA-006 in FP treated mice
  BAL macrophages: Increased Macrophages
BAL inflammatory cells [1]; repeated 2 pmol INNA-006 (day −7 & day −1)
  total BAL leukocyte numbers: increased total leukocyte numbers
TNF-α; repeated doses (D-7 & D-1)
  TNF-α in BAL: not observed
TNF-α; single 2 pmol dose seven days prior to infection
  TNF-α in BAL: significant TNF-α production in BAL
CXCL1 [2]
  CXCL1 in BAL: neutrophil chemokine production supressed; also recorded: supressed CXCL1 production; also recorded: drastically reduced levels of mouse neutrophil chemokine CXCL1; also recorded: highly effective at suppressing CXCL1 expression
[3]
  activation of other TLRs (SEAP reporter): no activation of any other TLR tested
[4]; Study 1E: 10 pmol day −7
  reduction of RV infection (lung RV copy number): 86.76%
[4]; Study 1E: 10 pmol dose day −7, listed as Peg-S-Pam2Cys
  anti-viral efficacy relative to Pam2CysSK4: better anti-viral efficacy compared to Pam2CysSK4
[4]; Study 1E: 1-10 pmol day −7
  dose dependence of RV suppression: appeared to be dose dependant
[4]; Study 1E: every dose 1-10 pmol day −7, day 2 p.i.
  RV copy number in lung: significant reduction in RV infection
[4]; Study 1F: 2 pmol
  viral clearance, day −7 + day −1 versus day −7 only: enhanced viral clearance compared to mice dose only on day 7
[4]; Study 1F: single treatment at day −7
  reduced viral RNA: 70%
[4]; Study 1F: treatment at both days −7 and −1
  reduction in viral RNA: approx. 90%
[4]; Study 1G: 10, 5, 2, 1 pmol 1 day post-infection, day 2 p.i.
  RV copy numbers in lung: reduces RV1B copy numbers in the lung
[4]; Study 1G: doses 5 pmole per mouse and lower
  lung viral load: significant reduction in lung viral load
[4]; Study 1G: highest dose 10 pmole per mouse
  lung viral load: less effective and not significant
RV1B
  reduction of viral RNA levels: approximately 50%
CXCL1 [5]; Study 1E(ii): INNA-011 and INNA-006 comparison, day −7
  RV-induced expression of CXCL1: reduced RV-induced expression of CXCL1
CXCL1 [5]; Study 1E: 10 pmol and 5 pmol dose day −7
  CXCL1 in BAL: effectively reduced CXCL1 levels
CXCL1 [5]; Study 1F: 2 pmol day −1, RV1B, listed as Peg-S-Pam2Cys
  CXCL1 in BAL: CXCL1 production was only increased; also recorded: significantly increased in mice treated one day prior to infection
CXCL1 [5]; Study 1F: 2 pmol day −7 and day −1, listed as Peg-S-Pam2Cys
  CXCL1 / lung inflammation after day −1 dose with prior day −7 dose: protected from lung inflammation; also recorded: completely abolished
CXCL1 [5]; Study 1G: 10-1 pmol day +1
  CXCL1 in BAL: dose dependent upon drug treatment
CXCL1 [5]; [9]
  CXCL1 (KC) in BAL: not increased by the lowest doses; also recorded: no significant increase in KC or TNFα
[6]
  weight loss: weight loss at the higher doses
  weight loss after second dose: no weight loss observed
BAL inflammatory cells [7]; Study 1E: day −7, day 2 p.i., listed as Peg-S-Pam2Cys
  RV-induced BAL neutrophilic inflammation: reduced RV-induced BAL neutrophilic inflammation; also recorded: reduced RV-induced neutrohillic inflammation; also recorded: significantly reduced neutrophilic inflammation
BAL inflammatory cells [7]; Study 1F: 2 pmol day −7, mock
  BAL macrophages: higher numbers of macrophages compared to its saline mock control group
BAL inflammatory cells [7]; Study 1F: 2 pmol, day −7, day −1 or both
  BAL lymphocytes: promoted lymphocyte recruitment in the BAL
BAL inflammatory cells [7]; Study 1F: 2 pmol, vs Saline RV
  total BAL leukocytes in RV1B infected mice: did not induce significantly higher leukocyte recruitment
BAL inflammatory cells [7]; Study 1F: 2 pmol, vs Saline mock
  total BAL leukocytes in mock infected mice: Total leukocytes were increased
BAL inflammatory cells [7]; Study 1F: three days after dosing (d-1 groups)
  neutrophilic response in uninfected mice: not Peg-S-Pam2Cys
BAL inflammatory cells [7]; Study 1G: day +1 treatment
  BAL lymphocytes: no changes to lymphocyte numbers
  BAL macrophages: significantly reducing macrophage numbers
  total BAL leucocyte numbers: no significant differences
BAL inflammatory cells [7]; Study 1G: day +1 treatment, listed as Peg-S-Pam2Cys
  BAL neutrophils: drastically increases neutrophil numbers in BAL; also recorded: increasing neutrophil recruitment
[8]; 2 pmol INNA-006, both treatment protocols, all groups
  viral lung load: reduced virus lung load in all groups; also recorded: significant reduction in viral load with both treatment protocols
[8]; repeated INNA-006 (D-7 & D-1) with FP
  viral lung load / antiviral efficacy: antiviral efficacy of repeated INNA-006 treatment was enhanced by FP; also recorded: best suppression of viral lung RNA
TLR-2
  activation of TLR-2 (SEAP reporter): able to activate its proposed target (TLR-2)
